According to patent US10442796B2, “2,3,5-substituted thiophene compound as protein kinase inhibitor” (KOREA INSTITUTE OF SCIENCE AND TECHNOLOGY, priority 2016, dated 2019):
Residue numbers refer to the chain shown, from its start. Where a name gives a salt, the structure may show the parent alone.

How the values were obtained:
Assay in all cases: Growth inhibitory activity against Ba/F3 cell line
Assay type in all cases: cell-based
[1] = molecular target: T1, FLT3-ITD Ba/F3 cells (Homo sapiens, UniProt P36888, cells depend on it, form not given); settings: Ba/F3 expressing FLT3-ITD; 72 hours; cell titer glo; read-out: IC50 (uM) FLT3-ITD
T1 sequence (P36888 1-993): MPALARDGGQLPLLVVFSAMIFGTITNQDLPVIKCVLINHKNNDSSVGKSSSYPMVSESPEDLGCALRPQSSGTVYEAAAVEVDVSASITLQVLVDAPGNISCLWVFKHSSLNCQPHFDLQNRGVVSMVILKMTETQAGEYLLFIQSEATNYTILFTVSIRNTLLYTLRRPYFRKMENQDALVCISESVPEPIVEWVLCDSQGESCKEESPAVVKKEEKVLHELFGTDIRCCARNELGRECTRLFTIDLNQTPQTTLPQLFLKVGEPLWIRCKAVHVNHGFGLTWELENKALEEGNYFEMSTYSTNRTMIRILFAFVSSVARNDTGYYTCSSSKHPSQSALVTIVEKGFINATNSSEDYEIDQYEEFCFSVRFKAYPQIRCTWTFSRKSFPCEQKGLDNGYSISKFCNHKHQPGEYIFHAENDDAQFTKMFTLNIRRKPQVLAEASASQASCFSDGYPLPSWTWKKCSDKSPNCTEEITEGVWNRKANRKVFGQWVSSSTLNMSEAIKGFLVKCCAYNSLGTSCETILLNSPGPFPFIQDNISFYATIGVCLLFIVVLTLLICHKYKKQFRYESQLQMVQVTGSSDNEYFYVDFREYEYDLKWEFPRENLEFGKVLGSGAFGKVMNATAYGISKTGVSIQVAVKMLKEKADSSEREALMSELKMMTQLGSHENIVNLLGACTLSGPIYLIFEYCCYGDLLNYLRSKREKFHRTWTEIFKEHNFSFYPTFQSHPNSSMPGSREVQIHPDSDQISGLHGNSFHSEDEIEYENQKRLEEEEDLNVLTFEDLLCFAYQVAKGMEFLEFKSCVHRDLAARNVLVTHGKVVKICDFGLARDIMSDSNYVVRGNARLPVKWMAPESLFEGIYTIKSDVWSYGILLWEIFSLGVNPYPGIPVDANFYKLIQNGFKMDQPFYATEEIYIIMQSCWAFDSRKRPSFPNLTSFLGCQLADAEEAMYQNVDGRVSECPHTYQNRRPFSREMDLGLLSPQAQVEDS
Summary of the method: (§1)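 Ba/F3 cells carrying FLT3 mutants grown in RPMI with 10% FBS, exposed 72 h to ten 3-fold dilutions of compound starting from 1 mM DMSO stock. Viability read by CellTiter-Glo luminescence; GI50 fitted from signal versus final concentration.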

[2] = molecular target: T2, FLT3-D835Y Ba/F3 cells (Homo sapiens, UniProt P36888, D835Y, cells depend on it); settings: Ba/F3 expressing FLT3-D835Y; 72 hours; cell titer glo; read-out: IC50 (uM) FLT3-D835Y
T2 sequence (P36888 1-993 D835Y): T1 sequence (P36888 1-993) with D835Y
Summary of the method: as §1

[3] = test system: Parental Ba/F3 cells; settings: BaF3; Parental Ba/F3 with mouse IL-3 1 ng/mL; 72 hours; cell titer glo
Method: A Ba/F3 cell line expressing an FLT3 mutation gene was cultured in a culture solution including 90% RPMI, 10% FBS, and an antibiotic (Welgene). 100 uL of the Ba/F3 cell line was put into each of 5,000 wells of a TC-treated 96 well plate (SPL), and then 1 uL of a test compound diluted in dimethylsulfoxide (diluted for each 3 paint from a concentration of 1 mM, total 10 concentrations) was each injected thereinto. Thereafter, the resulting cell lines were incubated in a cell culture incubator for 72 hours. 50 uL of a cell titer glo (Promega) solution was added thereto, the resulting mixture was stored at room temperature for 10 minutes, and then the light emission intensity was measured by using a reader (Envision, PerkinElmer). The light emission intensity was shown as a graph for each final concentration of the test compound, and the GI50 value was obtained by using a Prism 5.0 (GraphPad) software.
A parental Ba/F3 cell line having no FLT3 mutation gene was cultured by using a culture solution supplemented with mouse IL-3 (R&D Systems), such that a final concentration became 1 ng/mL in the culture solution including 90% RPMI, 10% FBS, and an antibiotic (Welgene). The activity was measured by a method which is the same as described above.

Row | SMILES | GI50 [1] | GI50 [2] | IC50 [3]
1 | Cn1cc(C#Cc2cc(NC(N)=O)c(C(=O)NC3CCNC3)s2)cn1 (stereo not drawn) [Example 39, 5-((1-methyl-1H-pyrazol-4-yl)ethynyl)-N-(pyrrolidin-3-yl)-3-ureidothiophene-2-carboxamide trifluoroacetate] | 3.73 µM | 34 µM | > 100 µM
2 | NC(=O)Nc1cc(C#Cc2ccc(C(F)(F)F)nc2)sc1C(=O)N[C@H]1CCCNC1 [Example 17, (S)—N-(piperidin-3-yl)-5-((6-(trifluoromethyl)pyridin-3-yl)ethynyl)-3-ureidothiophene-2-carboxamide] | < 0.005 µM | 0.064 µM | 2.37 µM
3 | N#Cc1ccc(C#Cc2cc(NC(N)=O)c(C(=O)N[C@H]3CCCNC3)s2)cc1 [Example 11, (S)-5-((4-cyanophenyl)ethynyl)-N-(piperidin-3-yl)-3-ureidothiophene-2-carboxamide] | < 0.001 µM | 0.003 µM | 0.143 µM
4 | NC(=O)Nc1cc(CCc2cccc(F)c2)sc1C(=O)N[C@H]1CCCNC1 [Example 53] | 0.359 µM | 1.61 µM | 44.5 µM
5 | NC(=O)Nc1cc(C#Cc2ccnc(F)c2)sc1C(=O)N[C@H]1CCCNC1 [Example 21, (S)-5-((2-fluoropyridin-4-yl)ethynyl)-N-(piperidin-3-yl)-3-ureidothiophene-2-carboxamide] | < 0.005 µM | 0.041 µM | 2.78 µM
6 | NC(=O)Nc1cc(C#Cc2cnn(C3CCOCC3)c2)sc1C(=O)N[C@H]1CCCCNC1 [Example 46, (S)—N-(azepan-3-yl)-5-((1-(tetrahydro-2H-pyran-4-yl)-1H-pyrazol-4-yl)ethynyl)-3-ureidothiophene-2-carboxamide trifluoroacetate] | 0.003 µM | 0.042 µM | 0.3 µM
7 | NC(=O)Nc1cc(C#Cc2ccncc2)sc1C(=O)N[C@H]1CCCNC1 [Example 4, (S)—N-(piperidin-3-yl)-5-(pyridin-4-ylethynyl)-3-ureidothiophene-2-carboxamide] | 0.016 µM | 0.408 µM | 24 µM
8 | NC(=O)Nc1cc(C#Cc2ccsc2)sc1C(=O)N[C@H]1CCCCNC1 [Example 48, (S)—N-(azepan-3-yl)-5-(thiophen-3-ylethynyl)-3-ureidothiophene-2-carboxamide trifluoroacetate] | 0.005 µM | 0.067 µM | 1.59 µM

The next lines start with results.

Row | GI50 [1] | GI50 [2] | SMILES | IC50 [3]
9 | 0.006 µM | 0.197 µM | NC(=O)Nc1cc(C#Cc2ccc(C(F)(F)F)cc2)sc1C(=O)N[C@H]1CCCNC1 [Example 16, ((S)—N-(piperidin-3-yl)-5-((4-(trifluoromethyl)phenyl)ethynyl)-3-ureidothiophene-2-carboxamide trifluoroacetate] | 14.8 µM
10 | 0.013 µM | 0.092 µM | Cn1cc(C#Cc2cc(NC(N)=O)c(C(=O)N[C@H]3CCCCNC3)s2)cn1 [Example 41, (S)—N-(azepan-3-yl)-5-((1-methyl-1H-pyrazol-4-yl)ethynyl)-3-ureidothiophene-2-carboxamide trifluoroacetate] | 3.69 µM
11 | < 0.001 µM | 0.003 µM | NC(=O)Nc1cc(C#Cc2ccc(F)cc2)sc1C(=O)N[C@H]1CCCNC1 [Example 9, (S)-5-((4-fluorophenyl)ethynyl)-N-(piperidin-3-yl)-3-ureidothiophene-2-carboxamide] | 0.429 µM
12 | 0.017 µM | 0.437 µM | CC(=O)N1CCC(n2cc(C#Cc3cc(NC(N)=O)c(C(=O)N[C@H]4CCCCNC4)s3)cn2)CC1 [Example 49] | > 5 µM
13 | 0.006 µM | 0.216 µM | CC(C)n1cc(C#Cc2cc(NC(N)=O)c(C(=O)N[C@H]3CCCCNC3)s2)cn1 [Example 44, (S)—N-(azepan-3-yl)-5-((1-isopropyl-1H-pyrazol-4-yl)ethynyl)-3-ureidothiophene-2-carboxamide trifluoroacetate] | 2.45 µM
